Activity calls are given as the source filed them.
What was measured:
Fatty acid synthase [1] = target: T1, Fatty acid synthase (Homo sapiens, UniProt P49327); assay: inhibition of human FAS-TE enzyme activity – biochemical, endpoint fluorescence intensity, uHTS hits, dose response (AID 624327); type: functional;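 note: fluorescence from hydrolysis of an O-methyl fluorescein acyl ester substrate by the enzyme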
Fatty acid synthase [2] = target: T1, Fatty acid synthase; assay: inhibition of human FAS-TE enzyme activity – biochemical, kinetic fluorescence intensity, dose response (AID 624326); type: functional;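 note: rate of fluorescence rise from hydrolysis of a fluorogenic O-methyl fluorescein ester substrate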
[3] = target: T2, High affinity choline transporter 1 (Homo sapiens, UniProt Q9GZV3); assay: human choline transporter blockers, potency – cell-based, 5-point CRC, membrane potential dye, dose response (AID 504840); type: functional
T2 sequence (Q9GZV3 whole entry): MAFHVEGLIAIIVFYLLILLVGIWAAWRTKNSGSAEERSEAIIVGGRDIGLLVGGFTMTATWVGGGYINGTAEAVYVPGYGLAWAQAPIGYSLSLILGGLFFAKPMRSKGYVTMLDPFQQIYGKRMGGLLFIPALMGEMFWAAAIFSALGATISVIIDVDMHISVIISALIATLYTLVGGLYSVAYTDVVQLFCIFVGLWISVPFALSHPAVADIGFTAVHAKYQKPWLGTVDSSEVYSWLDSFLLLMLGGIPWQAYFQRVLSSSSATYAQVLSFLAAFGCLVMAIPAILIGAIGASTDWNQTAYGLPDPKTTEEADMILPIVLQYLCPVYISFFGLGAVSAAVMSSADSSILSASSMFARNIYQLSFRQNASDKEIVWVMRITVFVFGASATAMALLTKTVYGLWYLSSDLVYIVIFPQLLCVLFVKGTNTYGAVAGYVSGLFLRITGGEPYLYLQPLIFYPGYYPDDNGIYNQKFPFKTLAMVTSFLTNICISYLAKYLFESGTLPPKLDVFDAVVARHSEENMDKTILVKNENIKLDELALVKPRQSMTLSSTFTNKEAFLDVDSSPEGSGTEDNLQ

[4] = blockers of HIV-1 envelope-mediated cell-cell fusion – cherry-pick, dose response (AID 652057); type: functional, cell-based
[5] = blockers of HIV-1 ZM109 envelope-driven cell-cell fusion – HeLa effector, CEM target cells, luciferase, cherry-pick, dose response (AID 652058); type: functional, cell-based;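 note: luciferase signal from HIV-1 Env mediated cell-cell fusion of effector and target cells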
[6] = off-target signal loss in HeLa-CEM21 co-culture – HeLa F-luc CTL cells, cherry-picked, counter-screen for HIV-1 Env fusion inhibitor project, dose response (AID 652040); type: functional, cell-based;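 note: potency for signal decrease marking cytotoxic or nonspecific inhibition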
[7] = HIV-1 AD8 envelope cell-cell fusion blockers – cherry-pick, dose response (AID 652062); type: functional, cell-based;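 note: luciferase signal from cell-cell fusion driven by HIV-1 clade B AD8 Env; potency is for inhibitors of fusion seen as a drop in luminescence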
[8] = target: T3, Heat shock factor protein 1 (Mus musculus, UniProt P38532); assay: decrease of HSF1-responsive luciferase luminescence – cell-based, NIH3T3, dose retest, confirmation (AID 2382); type: functional;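 note: NIH3T3 fibroblasts with HSF1-driven luciferase reporter stressed by proteasome inhibitor MG132; luminescence from HSF1-driven luciferase expression after 8 hours of MG132 stress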
T3 sequence (P38532 whole entry): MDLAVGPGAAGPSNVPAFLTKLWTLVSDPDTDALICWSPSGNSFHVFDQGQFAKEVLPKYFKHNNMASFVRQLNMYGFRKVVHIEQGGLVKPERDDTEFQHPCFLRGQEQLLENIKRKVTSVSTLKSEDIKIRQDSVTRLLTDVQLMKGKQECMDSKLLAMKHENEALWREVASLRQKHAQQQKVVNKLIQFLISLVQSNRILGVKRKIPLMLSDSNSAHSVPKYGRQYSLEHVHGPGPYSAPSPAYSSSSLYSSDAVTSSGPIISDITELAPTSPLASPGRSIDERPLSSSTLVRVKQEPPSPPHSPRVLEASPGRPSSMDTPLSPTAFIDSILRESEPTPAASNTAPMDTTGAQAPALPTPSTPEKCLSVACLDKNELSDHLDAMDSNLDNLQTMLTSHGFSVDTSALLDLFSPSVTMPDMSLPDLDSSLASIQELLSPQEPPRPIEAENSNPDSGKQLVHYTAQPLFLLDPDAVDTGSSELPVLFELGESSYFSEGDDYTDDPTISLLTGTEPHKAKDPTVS

[9] = target: FAD-linked sulfhydryl oxidase ALR (Homo sapiens, UniProt P55789); assay: ALR-catalysed DTT oxidation blockers – biochemical, H2O2 detection, luminescence, cherry-pick, dose response (AID 493248)
[10] = target: T4, Rac GTPase-activating protein 1 (Homo sapiens, UniProt Q9H0H5); assay: blockers of MgcRacGAP-driven Rac1 GTP hydrolysis – biochemical, ADP Hunter fluorescence, primary and confirmatory, confirmation (AID 624330); type: functional
T4 sequence (Q9H0H5 whole entry): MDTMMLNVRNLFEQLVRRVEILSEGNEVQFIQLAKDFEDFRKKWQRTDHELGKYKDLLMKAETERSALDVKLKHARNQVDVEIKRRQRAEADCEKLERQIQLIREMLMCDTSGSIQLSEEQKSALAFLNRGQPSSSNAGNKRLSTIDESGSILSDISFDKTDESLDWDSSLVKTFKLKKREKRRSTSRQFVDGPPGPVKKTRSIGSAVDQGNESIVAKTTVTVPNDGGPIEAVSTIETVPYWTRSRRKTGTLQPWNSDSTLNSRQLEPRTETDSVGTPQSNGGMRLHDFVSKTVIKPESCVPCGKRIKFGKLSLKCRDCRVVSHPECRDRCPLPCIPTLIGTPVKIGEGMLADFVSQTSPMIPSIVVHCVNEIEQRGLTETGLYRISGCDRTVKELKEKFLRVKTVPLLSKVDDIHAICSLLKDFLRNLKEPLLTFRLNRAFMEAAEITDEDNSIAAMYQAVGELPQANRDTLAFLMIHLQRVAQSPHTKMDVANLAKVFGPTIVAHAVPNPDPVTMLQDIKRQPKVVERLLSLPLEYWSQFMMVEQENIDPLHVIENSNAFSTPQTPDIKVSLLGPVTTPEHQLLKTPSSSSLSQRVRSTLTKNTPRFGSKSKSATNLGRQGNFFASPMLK

Protein skinhead-1 = target: T5, Protein skinhead-1 (Caenorhabditis elegans, UniProt P34707); type: functional
T5 sequence (P34707 whole entry): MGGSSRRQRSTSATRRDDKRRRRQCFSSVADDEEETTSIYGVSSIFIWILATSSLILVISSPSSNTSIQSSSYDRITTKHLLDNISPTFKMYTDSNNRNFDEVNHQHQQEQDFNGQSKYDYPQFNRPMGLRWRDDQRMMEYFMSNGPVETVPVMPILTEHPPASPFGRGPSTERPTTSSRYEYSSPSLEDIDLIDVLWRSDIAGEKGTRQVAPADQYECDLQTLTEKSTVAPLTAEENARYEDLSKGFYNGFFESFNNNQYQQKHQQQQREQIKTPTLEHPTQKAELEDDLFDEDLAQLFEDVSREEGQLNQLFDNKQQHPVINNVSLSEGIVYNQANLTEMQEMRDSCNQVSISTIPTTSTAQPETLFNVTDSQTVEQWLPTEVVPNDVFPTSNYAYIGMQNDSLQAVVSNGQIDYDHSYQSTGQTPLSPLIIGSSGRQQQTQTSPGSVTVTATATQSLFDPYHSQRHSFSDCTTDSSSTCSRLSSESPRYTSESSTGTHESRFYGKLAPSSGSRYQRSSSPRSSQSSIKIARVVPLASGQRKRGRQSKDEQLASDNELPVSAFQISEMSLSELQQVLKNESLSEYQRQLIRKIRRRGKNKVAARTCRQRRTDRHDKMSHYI

[11] = luciferase reporter signal suppression in cells – H4 neuroglioma cells, luminescence, dose response (AID 1990); type: functional, cell-based
[12] = alpha-synuclein stem-loop luciferase translation blockers – H4 neuroglioma cells, luminescence, confirmation (AID 1988); type: functional, cell-based
Large T antigen = Large T antigen (Simian virus 40, UniProt P03070); type: functional, Betapolyomavirus macacae;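 note: Confirmatory-stage PubChem screen for compounds that inhibit SV40 T antigen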
Sequence of Large T antigen (P03070 whole entry): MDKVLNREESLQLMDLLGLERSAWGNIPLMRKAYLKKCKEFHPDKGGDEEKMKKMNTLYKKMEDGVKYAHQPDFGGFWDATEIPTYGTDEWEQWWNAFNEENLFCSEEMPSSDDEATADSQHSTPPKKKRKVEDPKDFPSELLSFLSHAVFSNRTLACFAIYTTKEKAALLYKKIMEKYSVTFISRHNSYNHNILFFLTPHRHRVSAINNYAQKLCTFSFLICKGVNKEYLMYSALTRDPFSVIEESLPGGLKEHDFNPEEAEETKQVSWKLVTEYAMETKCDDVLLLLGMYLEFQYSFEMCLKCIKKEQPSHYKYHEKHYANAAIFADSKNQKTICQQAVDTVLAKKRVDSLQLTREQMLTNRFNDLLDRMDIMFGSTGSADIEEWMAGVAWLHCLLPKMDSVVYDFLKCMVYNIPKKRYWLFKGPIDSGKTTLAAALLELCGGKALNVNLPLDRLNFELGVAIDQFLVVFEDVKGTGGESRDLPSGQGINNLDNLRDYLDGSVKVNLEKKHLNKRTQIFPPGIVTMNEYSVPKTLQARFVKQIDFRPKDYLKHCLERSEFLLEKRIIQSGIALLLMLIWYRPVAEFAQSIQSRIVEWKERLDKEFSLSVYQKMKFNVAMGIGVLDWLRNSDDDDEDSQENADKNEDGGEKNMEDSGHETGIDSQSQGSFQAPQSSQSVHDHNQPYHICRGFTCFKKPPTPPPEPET

T1 sequence (P49327 whole entry): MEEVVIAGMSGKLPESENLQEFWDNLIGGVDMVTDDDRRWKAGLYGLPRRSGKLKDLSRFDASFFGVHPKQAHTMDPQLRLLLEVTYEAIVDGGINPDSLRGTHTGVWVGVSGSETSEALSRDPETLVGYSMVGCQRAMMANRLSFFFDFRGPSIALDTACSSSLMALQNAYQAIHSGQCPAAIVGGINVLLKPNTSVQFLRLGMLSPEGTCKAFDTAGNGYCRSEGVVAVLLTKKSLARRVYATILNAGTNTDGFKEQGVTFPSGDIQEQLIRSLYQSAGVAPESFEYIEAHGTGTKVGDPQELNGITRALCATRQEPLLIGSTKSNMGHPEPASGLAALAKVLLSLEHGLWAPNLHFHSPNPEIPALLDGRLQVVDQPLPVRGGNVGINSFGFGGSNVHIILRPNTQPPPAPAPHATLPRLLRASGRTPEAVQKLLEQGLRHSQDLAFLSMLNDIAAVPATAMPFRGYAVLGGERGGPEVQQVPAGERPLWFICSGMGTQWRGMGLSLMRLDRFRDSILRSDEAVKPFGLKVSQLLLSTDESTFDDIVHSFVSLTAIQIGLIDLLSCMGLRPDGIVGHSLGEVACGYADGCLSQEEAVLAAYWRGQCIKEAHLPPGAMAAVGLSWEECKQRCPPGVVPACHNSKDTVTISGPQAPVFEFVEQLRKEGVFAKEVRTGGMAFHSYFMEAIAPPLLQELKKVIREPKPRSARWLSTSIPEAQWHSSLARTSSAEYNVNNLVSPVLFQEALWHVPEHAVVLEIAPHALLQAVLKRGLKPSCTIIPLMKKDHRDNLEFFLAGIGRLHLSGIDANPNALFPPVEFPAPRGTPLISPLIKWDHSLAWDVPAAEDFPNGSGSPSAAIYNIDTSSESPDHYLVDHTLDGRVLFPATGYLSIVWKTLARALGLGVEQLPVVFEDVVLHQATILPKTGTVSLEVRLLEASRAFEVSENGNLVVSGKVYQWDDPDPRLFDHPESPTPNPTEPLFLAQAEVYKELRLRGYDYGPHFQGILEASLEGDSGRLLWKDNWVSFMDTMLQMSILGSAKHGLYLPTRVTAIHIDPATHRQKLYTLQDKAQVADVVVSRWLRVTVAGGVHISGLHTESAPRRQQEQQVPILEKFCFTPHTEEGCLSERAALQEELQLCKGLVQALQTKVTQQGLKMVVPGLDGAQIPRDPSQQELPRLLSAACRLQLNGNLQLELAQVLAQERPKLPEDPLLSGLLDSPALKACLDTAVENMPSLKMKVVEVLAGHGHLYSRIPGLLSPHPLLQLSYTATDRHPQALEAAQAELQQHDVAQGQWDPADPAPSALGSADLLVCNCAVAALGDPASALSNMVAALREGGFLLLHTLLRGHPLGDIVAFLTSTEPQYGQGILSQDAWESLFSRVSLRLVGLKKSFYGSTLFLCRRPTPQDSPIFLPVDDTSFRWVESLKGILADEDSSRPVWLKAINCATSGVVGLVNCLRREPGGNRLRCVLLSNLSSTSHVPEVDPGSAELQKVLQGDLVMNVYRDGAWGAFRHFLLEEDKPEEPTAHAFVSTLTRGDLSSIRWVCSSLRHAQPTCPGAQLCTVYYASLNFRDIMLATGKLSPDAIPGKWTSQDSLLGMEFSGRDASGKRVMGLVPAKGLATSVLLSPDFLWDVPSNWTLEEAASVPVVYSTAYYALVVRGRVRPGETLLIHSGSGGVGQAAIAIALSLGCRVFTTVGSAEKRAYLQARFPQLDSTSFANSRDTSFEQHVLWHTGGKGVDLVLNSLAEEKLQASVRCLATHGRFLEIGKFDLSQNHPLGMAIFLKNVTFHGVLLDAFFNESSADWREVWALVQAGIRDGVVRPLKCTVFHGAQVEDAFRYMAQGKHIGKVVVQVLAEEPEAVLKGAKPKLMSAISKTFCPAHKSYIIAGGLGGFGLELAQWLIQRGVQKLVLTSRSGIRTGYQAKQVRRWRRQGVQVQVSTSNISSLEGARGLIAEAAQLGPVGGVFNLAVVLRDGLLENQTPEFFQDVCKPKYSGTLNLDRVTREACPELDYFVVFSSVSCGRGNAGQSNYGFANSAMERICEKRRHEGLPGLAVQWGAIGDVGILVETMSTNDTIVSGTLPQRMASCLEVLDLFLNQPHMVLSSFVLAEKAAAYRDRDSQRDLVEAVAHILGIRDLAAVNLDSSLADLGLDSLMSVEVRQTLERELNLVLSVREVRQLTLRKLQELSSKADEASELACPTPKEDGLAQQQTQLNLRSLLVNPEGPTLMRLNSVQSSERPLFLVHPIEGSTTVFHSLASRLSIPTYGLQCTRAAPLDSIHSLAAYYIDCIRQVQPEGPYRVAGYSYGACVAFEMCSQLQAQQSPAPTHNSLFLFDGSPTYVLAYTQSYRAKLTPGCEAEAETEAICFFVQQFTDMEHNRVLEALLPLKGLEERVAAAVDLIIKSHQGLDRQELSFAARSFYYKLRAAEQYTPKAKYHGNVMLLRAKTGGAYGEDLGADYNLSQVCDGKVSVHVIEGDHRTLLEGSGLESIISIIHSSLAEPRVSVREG
Sequence of FAD-linked sulfhydryl oxidase ALR (P55789 whole entry): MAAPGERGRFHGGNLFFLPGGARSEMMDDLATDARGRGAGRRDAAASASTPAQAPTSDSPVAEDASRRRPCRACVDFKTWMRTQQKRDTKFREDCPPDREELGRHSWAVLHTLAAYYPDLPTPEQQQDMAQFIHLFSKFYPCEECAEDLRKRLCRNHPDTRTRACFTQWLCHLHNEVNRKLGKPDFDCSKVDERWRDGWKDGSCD

CCc1nc2c(OCc3ccc(Cl)cc3)cccn2c1N(C=O)Cc1ccccc1
IC50 (Fatty acid synthase [1]): 6.9 µM (active)
IC50 (Fatty acid synthase [2]): 3.71 µM (active)

CCOC(=O)[C@@H]1[C@H]2COc3cc(OC)ccc3[C@H]2N2C(=O)N(c3cccc(Cl)c3)C(=O)[C@@]12C
IC50 (Fatty acid synthase [1]): 23.7 µM (inactive)
IC50 (Fatty acid synthase [2]): 13.6 µM (active)

C/C=C/C=N/NC(=O)CN(c1ccc(Br)cc1)S(=O)(=O)c1ccccc1
IC50 (Fatty acid synthase [1]): 10.6 µM (active)
IC50 (Fatty acid synthase [2]): 10.1 µM (active)

COc1ccc([N+](=O)[O-])cc1NC(=O)C1(c2ccccc2)CCOCC1
IC50 (Fatty acid synthase [1]): 19.6 µM (active)
IC50 (Fatty acid synthase [2]): 16.5 µM (active)

COc1ccc(C(=O)N(C)Cc2ccc(C)o2)cc1OC1CCN(C(C)C)CC1
IC50 [3]: 12.6 µM (active)

O=C1NCCN(Cc2cccc(Oc3ccccc3)c2)C1CC(=O)N1CCCCC1 (configuration not stated)
AC50 [4]: 3.76 µM (active)
AC50 [5]: 10.9 µM (active)
AC50 [6]: 11.1 µM (active)
AC50 [7]: 8.77 µM (active)

CC[C@@]12C(=O)N(c3ccccc3)C(=O)N1[C@H](c1ccc(OC)cc1)[C@@H]1C(=O)N(C(C)(C)C)C(=O)[C@@H]12
AC50 [4]: 1.22 µM (active)
AC50 [5]: 1.67 µM (active)
AC50 [6]: 2.68 µM (active)
AC50 [7]: 3.89 µM (active)

CC1CCN(C(=O)COC(=O)c2cc([N+](=O)[O-])ccc2N2CCOCC2)CC1
IC50 (Fatty acid synthase [1]): 3.58 µM (active)
IC50 (Fatty acid synthase [2]): 5.23 µM (active)

CCn1cc([N+](=O)[O-])c(C(=O)N2N=C(c3ccccc3)CC2c2ccc([N+](=O)[O-])cc2)n1 (configuration not stated)
IC50 (Fatty acid synthase [1]): 15.6 µM (active)
IC50 (Fatty acid synthase [2]): 13.2 µM (active)

COC(=O)c1cc(C(=O)NCc2ccc3c(c2)OCO3)cc([N+](=O)[O-])c1
IC50 (Fatty acid synthase [1]): 11.1 µM (active)
IC50 (Fatty acid synthase [2]): 11.7 µM (active)

COc1ccc(-c2nnn(CC(=O)N(Cc3cccs3)C(C)C(=O)NC3CCCC3)n2)cc1OC (configuration not stated)
AC50 [4]: 5.2 µM (active)
AC50 [5]: 9.35 µM (active)
AC50 [6]: 24.8 µM (active)
AC50 [7]: 10.1 µM (active)

COc1ccc(-c2cc(=O)oc3c(C)c(OCc4nn[nH]n4)ccc23)cc1
IC50 (Fatty acid synthase [1]): 9.18 µM (active)
IC50 (Fatty acid synthase [2]): 5.32 µM (active)

O=C(Nc1ccc(F)c(Cl)c1)C1CCN(S(=O)(=O)c2cccnc2)CC1
EC50 [8]: > 195 µM (not active)
IC50 [3]: 13.2 µM (active)

CC(NC(=O)C(C(=O)c1cccc([N+](=O)[O-])c1)n1cc(Cl)ccc1=O)c1ccccc1 (configuration not stated)
IC50 (Fatty acid synthase [1]): 8.63 µM (active)
IC50 (Fatty acid synthase [2]): 7.89 µM (active)

COc1ccc(CN(C)C(=O)COC(=O)c2cc([N+](=O)[O-])ccc2N2CCCC2)c(OC)c1OC
IC50 (Fatty acid synthase [1]): 5.42 µM (active)
IC50 (Fatty acid synthase [2]): 6.71 µM (active)

O=C(Cn1ncc2c(=O)oc3ccccc3c21)N1CCC(N2CCCCC2)CC1
AC50 [6]: 38.2 µM (active)
AC50 [7]: 2.31 µM (active)

CCN(CC)c1ccc(NC(=O)CNCc2ccccc2Cl)c(C)c1
AC50 [9]: 1.61 µM (active)
IC50 [3]: 20.9 µM (active)
IC50 [10]: 31 µM (active)

CN(C)c1ccc(C(=O)c2ccc(O)cc2O)cc1
IC50 [3]: 11 µM (active)

Cc1cc(C)c2nc(C(F)(F)F)nc(N3CCN(C(=O)c4ccco4)CC3)c2c1
IC50 (Protein skinhead-1): > 100 µM (inactive)
AC50 [4]: 31.2 µM (active)
AC50 [5]: 1.22 µM (active)
AC50 [6]: 21.9 µM (active)
AC50 [7]: 25.7 µM (active)

C[C@@]12CC(=O)NC1N(C(=O)c1cccc(C(F)(F)F)c1)C(c1ccccc1O)C2 (some centres not stated)
AC50 [4]: 3.74 µM (active)
AC50 [5]: 7.54 µM (active)
AC50 [6]: 7.18 µM (active)
AC50 [7]: 26.7 µM (active)

Cc1ccc(C(C(=O)NC2CCCCC2)N(C(=O)c2csnn2)C2CCCC2)o1 (configuration not stated)
AC50 [4]: 14.1 µM (active)
AC50 [5]: 3.63 µM (active)
AC50 [6]: 13.5 µM (active)
AC50 [7]: 6.08 µM (active)

COc1ccc(C(=O)C(C)N(C(=O)c2ccc(Cl)cc2Cl)N2C(=O)C3C4C=CC(C4)C3C2=O)cc1 (configuration not stated)
EC50 [11]: 16.7 µM (active)
EC50 [12]: > 120 µM (not active)
AC50 [4]: 2.94 µM (active)
AC50 [5]: 2.82 µM (active)
AC50 [6]: 4.93 µM (active)
AC50 [7]: 13.1 µM (active)

CC(=O)N1N=C(c2cccc([N+](=O)[O-])c2)OC1c1cccc(Br)c1 (configuration not stated)
IC50 (Fatty acid synthase [1]): 9.14 µM (active)
IC50 (Fatty acid synthase [2]): 11.9 µM (active)

CN(c1ccccc1)S(=O)(=O)c1cccc(NC(=O)CCNC(=O)c2ccc([N+](=O)[O-])cc2)c1
IC50 (Fatty acid synthase [1]): 7.63 µM (active)
IC50 (Fatty acid synthase [2]): 9.59 µM (active)

CCCn1c2ccccc2c2cnn(CC(=O)NCCN(C)C)c(=O)c21
IC50 [3]: 11.5 µM (active)

Cc1cc(=O)oc2cc(OCC(=O)N3CCN(C(C)c4ccccc4)CC3)c(Cl)cc12 (configuration not stated)
IC50 (Fatty acid synthase [1]): 8.39 µM (active)
IC50 (Fatty acid synthase [2]): 8.55 µM (active)

Cc1ccc(S(=O)(=O)c2nnn3c2nc(N2CCC(C(N)=O)CC2)c2ccccc23)cc1C
IC50 (Fatty acid synthase [1]): 11.4 µM (active)
IC50 (Fatty acid synthase [2]): 8.84 µM (active)

O=C1NC(=O)N(c2ccc(Cl)cc2)C(=O)/C1=C/c1coc2ccc(O)cc2c1=O
IC50 (Large T antigen): > 100 µM (active)
IC50 [3]: 12.7 µM (active)

CCC1(C)Cc2c(sc3nnn(CC(=O)Nc4ccccc4)c(=O)c23)CO1 (configuration not stated)
IC50 [3]: 11.5 µM (active)

Source: ChEMBL document CHEMBL1201862, “PubChem BioAssay data set” (2004)
